Holding throughout (format): cell-based
One assay has as its system bacterial cells. Put plainly: Traditional incorporation studies.
The test system of assay [1] is bacterial membrane. Put plainly: K+-efflux of exposed bacteria. Particulars: bacteria exposed to the defensin.
For assay [2], the system named is vancomycin-resistant Staphylococcus aureus (VRSA). The assay is described as follows: Cross-resistance with vancomycin resistance.
The test system of assay [3] is bacterial membrane. Put plainly: Trans-membrane potential of exposed bacteria. Conditions: bacteria exposed to the defensin.

On to “GFGCNGPWNEDDLRCHNHCKSIKGYKGGYCAKGGFVCKCY [Defensin2114]”, for which, in the assay on bacterial cells, the “incorporation of cell wall precursors” value is given as “severely affected”. For the same substance, the “K+-efflux” value in the assay on bacterial membrane [1] is given as “No K^+-efflux could be detected”. Moreover, in assay [2], the cross-resistance result was “No cross-resistance”. Moreover, the trans-membrane potential result in the assay with bacterial membrane [3] is listed as “remained intact”.
For Plectasin the same measures were “severely affected”, “No K^+-efflux could be detected”, “No cross-resistance” and “remained intact”.

(Values after US20100104552A1, “ANTIBIOTIC SYNERGISM” (priority 2008, published 2010).)
